In assay [1] the test system is iPS cell-derived cardiomyocytes (iCell Cardiomyocytes). Briefly: Secondary screening: morphometric analysis of iCell Cardiomyocytes. The assay is classed as cell-based, human. The text has this:
A library of 800 small molecule compounds that can stimulate favorable cardiac adaptation in primary neonatal rat ventricular myocytes (NRVM) was screened. To identify the beneficial modifiers of hypertrophy, the Cellomics Arrayscan High Throughput Screening platform was employed to quantify morphometric features such as, for example, length, width, and length to width ratio from images acquired using a 10× lens for DAPI-labeled nuclei and CY3 labeled α actinin stained cardiomyocytes in a 96 well format. The lead compound was also screened in iPSC derived cardiomyocytes as a part of secondary screening as it offers a physiologically relevant human cell-based model.
A secondary screening was performed with 10 drugs identified from primary screening for their ability to induce physiological remodeling using morphometric analysis and measuring the levels of B-type natriuretic peptide (BNP), as a surrogate indicator of the hypertrophic response using ELISA. The compounds were selected based on the highly enriched targets identified in the drug set enrichment analysis with a high Z score. Cryopreserved iPS cell-derived cardiomyocytes (“iCell Cardiomyocytes”) obtained from Cellular Dynamics International (CDI, Madison, WI) were used as a cell model to perform the screening.
The cells were plated at a density of 2.5×10^4 cells onto 25 mm diameter fibronectin coated glass coverslips in plating media for 48 hours. The media was replaced with Supplemented William's E (SWE) medium (SWE) media supplemented with cocktail containing penicillin-streptomycin, ITS+(insulin, transferrin, selenium complex, BSA, and linoleic acid), GlutaMAX™, and HEPES (Primary Hepatocyte Maintenance Supplements-GIBCO) for 48 hours. The cells were treated with controls (CT1-40 ng/mL, PE-100 uM) and drugs (AZD1152-HQPA, LY283519) at varying concentrations (2.5, 1, 0.5, and 0.25 uM) for 24 hours.
Post treatments, the cells were washed, fixed and treated with primary antibody, secondary antibody similar to the protocol of Example 3. The effect on the morphometric parameters was assessed using Cellomics Arrayscan Vti HCS reader. The Image acquisition was performed using the Zeiss AxioVision SE64 Imaging software and analyzed using the ImageJ2 software.
iCell cardiomyocytes were seeded at a density of 10,000 cells per well in a 96 well plate format. The cells were maintained as in Example 3 and were treated with controls (hCT1, PE) and drugs (AZD1152-HQPA, LY283519) at four different concentrations for 24 hours. The cells were then fixed and stained with a Actinin for cardiomyocytes followed by nuclear staining with DAPI. The plates were analyzed in Cellomics Arrayscan Vti HCS reader to assess morphometric changes following treatment.

The subject of assay [2] is phenylephrine induced left ventricular hypertrophy. Briefly: Phenylephrine-induced left ventricular hypertrophy rat model: heart weight and echocardiography. The assay is classed as in vivo, Sprague Dawley rat. Here is the method: (§1) Animal Model Preparation. Sprague Dawley rats were continuously treated with phenylephrine (PE), an α-adrenergic agonist that causes vasoconstriction leading to increased afterload and decreased ventricular function, to create a left-ventricular dysfunction animal model. […] For chronic infusion of phenylephrine, Alzet® mini-osmotic pumps (2002, Durect® Corp) containing Phenylephrine (PE) (10 mg/kg/day) or PBS vehicle were surgically implanted dorsally and subcutaneously in each Sprague Dawley rat under isoflurane anaesthesia. The animals were allowed to develop left ventricular hypertrophy for 2 weeks following the osmotic pump implantation.
(§2) Echocardiography was performed, the animals were sacrificed at 3 weeks endpoint and the blood and tissue were harvested for further analysis.

The next assay has as its system cardiac fibrosis. Briefly: Cardiac fibrosis by Masson's trichome staining in PE rat model. The assay is classed as in vivo, Sprague Dawley rat. Here is the method: as §1, §2
The rat model was prepared as described in Example 12, and the cardiac tissue harvested at the end of the 3 weeks was prepared with Masson's trichome staining methodology, which is a histological technique used to visualize and assess connective tissue, particularly collagen, within biological samples.

Another assay concerns collagen type I. Briefly: Collagen type I immunofluorescence in NRVM. The assay is classed as cell-based, neonatal rat. Here is the method: Primary NRVMs were seeded at a density of 2.7×10^5 cells directly onto 25 mm diameter collagen-coated glass coverslips. The treatments with control (PE) and drugs LY283519 were performed for 24 hours. […] Post treatment, the cells were washed three times in PBS followed by fixation in 4% paraformaldehyde for 30 min. Cells were then permeabilized in blocking buffer (1% bovine serum albumin (BSA), 2% normal goat serum, 0.4% Tx-100 in PBS) for 15 min and were incubated for 2 h at room temperature with primary a Actinin and collagen type I antibody, followed by three successive washes in PBS in a humidified chamber. Cells were then blocked again in blocking buffer for 15 min followed by a 1-hour incubation in fluorescently conjugated secondary antibody. Cells were then washed again in PBS and the nuclei were counterstained with 4′,6-diamidino-2-phenylindole (DAPI). The cells were mounted onto microscope slides with Dako Cytomation fluorescent mounting medium (Dako). Digital fluorescent images were obtained using the Zeiss AxioVision SE64 Imaging software and analyzed using ImageJ2 software.

For another assay, the system named is cardiomyocytes (NRVMs). Briefly: Oxygen consumption rate of cardiomyocytes (Seahorse Mito Stress Test). The assay is classed as cell-based, neonatal rat. As to conditions: 24 h treatment; vs untreated control; FIG. 12. As for the experimental part:
OCR detection of cardiomyocytes was conducted with the Seahorse Xfe 24 analyzer (Agilent, Santa Clara, USA). Cardiomyocytes were seeded at a density of 8×10^4/well in a special Seahorse 24-well plate (102342-100, Seahorse). After treating with hCT1, PE and drug for 24 h, the medium was replaced with XF medium containing 10 mM D-(+)-glucose (G7021, Sigma-Aldrich), and 1 mM sodium pyruvate (11360070, Thermo Fisher). The plates were placed in a CO2-free 37 °C incubator for an hour before the measurement. A Seahorse XF Cell Mito Stress Test Kit (103015-100, Seahorse) was used for detection. The basal respiration of the NRVMs was detected, and ATP-linked OCR was analyzed after treatment with 1 μM oligomycin (ATP synthase inhibitor). Then, the uncoupling agent carbonyl [COMPOUND LEFT OUT] 4-(trifluoromethoxy) phenylhydrazone (FCCP) 0.5 μM was injected to detect maximal respiration. Finally, rotenone and antimycin A (AR) were used to abolish mitochondrial respiration by inhibiting complexes I and III, respectively.

Where [3] appears, read: LY2835219 alone and in rats subjected to phenylephrine.
[4] abbreviates: PE treated rats, 3 weeks LY2835219 75 mg/kg/day oral.
[5] abbreviates: single treatment, 24 hours, vs control.
Setting [6] is: systole and diastole, PE compared to control and LY2835219 group.

Molecules are shown by their SMILES.

Take `CCN1CCN(Cc2ccc(Nc3ncc(F)c(-c4cc(F)c5nc(C)n(C(C)C)c5c4)n3)nc2)CC1` [LY2835219]: the Mean Cardiomyocyte Length was determined as 221 µm in assay [1] (iCell Cardiomyocyte, drug 0.25 μm, 24 hours, UT 213.01323); 239 µm in assay [1] (iCell Cardiomyocyte, drug 0.5 μm, 24 hours, UT 213.01323); 242 µm in assay [1] (iCell Cardiomyocyte, drug 1 μm, 24 hours, UT 213.01323); 245 µm in assay [1] (iCell Cardiomyocyte, drug 2.5 μm, 24 hours, UT 213.01323). Moreover, the Eccentric cardiac remodeling result in assay [1] (iCell cardiomyocyte, 1 uM, FIG. 4A) is on record as “Eccentric cardiac remodeling was observed”. For the same compound, in assay [1] (iCell cardiomyocytes on coverslips, 24 hours), the “cardiomyocyte length compared with CT1 treated cells” value is “comparable cardiomyocyte length”. Moreover, the “length in iCell cardiomyocyte compared to hCT1” value in assay [1] (iCell cardiomyocytes, 96 well, four concentrations, 24 hours) is “increased length in iCell cardiomyocyte comparable to length induced by hCT1”. Also, the “effect in phenylephrine induced left ventricular hypertrophy” value in assay [2] (LY2835219 75 mg/kg/day oral, 3 weeks) is on record as “anti-hypertrophic effect”. In assay [2] (setting [3]), the cardiac output result was “improved”. Besides, the ejection fraction entry in assay [2] (setting [3]) is “improved”. Further, in assay [2] (setting [3]), the fractional shortening result is recorded as “improved”. Also, the stroke volume result in assay [2] (setting [3]) is “improved”. The “PE effect on left ventricular internal diameter” value in assay [2] (PE 2 weeks followed by LY2835219 3 weeks, 75 mg/kg/day oral) was “reversed”. Further, the “cardiac function (ejection fraction, fractional shortening, stroke volume, cardiac output)” value in assay [2] (PE treated rats subjected to LY2835219 for 3 weeks, compared with control rats and PE treated rats) was “significantly enhanced cardiac function”. The “PE effect on thickness of left ventricular anterior wall” value in assay [2] (setting [4]) is “reversed”. Moreover, in assay [2] (setting [4]), the “PE effect on thickness of left ventricular posterior wall” value is on record as “reversed”. The “PE effect on thickness of septal wall” value in assay [2] (setting [4]) is “reversed”. For the same compound, the cardiac fibrosis entry was “did reduce fibrosis” in the assay on cardiac fibrosis (LY2835219 in animals subjected to PE treatment) and “did not induce fibrosis” in the assay with cardiac fibrosis (LY2835219 treatment alone). In addition, the “expression of collagen type I” value in the assay on collagen type I (PE for 24 hrs followed by LY2835219 for 24 hrs) was “decreased expression of collagen type I”; with collagen type I (setting [5]), “decrease in expression of collagen type I”. Moreover, the “oxygen consumption rate (OCR)” value with cardiomyocytes (NRVMs) was “increase the rate of oxygen consumption”.

For the compound `CNC[C@H](O)c1cccc(O)c1` [PE, phenylephrine], the Mean Cardiomyocyte Length in assay [1] (24 h, 100 µM) worked out at 191 µm. In assay [2] (PE 10 mg/kg/day, compared to sham (PBS), LY2835219 alone, and PE 2 weeks followed by 3 weeks LY2835219), the “Heart Weight/Body Weight ratio” value was “significantly increased”. In addition, in assay [2] (PE treated group compared to control and drug treatment group, FIG. 14), the “heart size (whole heart image)” value was “enlarged”. Also, in assay [2] (PE treated rats, after 2 weeks), the cardiac output entry is recorded as “decreased”, the ejection fraction result is listed as “decreased”, the percentage fractional shortening entry is “decreased” and the stroke volume result was “decreased”. In addition, in assay [2] (PE treatment group), the “left ventricular internal diameter” value was “reduced”. Besides, in assay [2] (setting [6]), the “thickness of left ventricular anterior wall” value is “increased thickness”, the “thickness of left ventricular posterior wall” value is “increased thickness” and the “thickness of septal wall” value is given as “increased thickness”. Also, in the assay on cardiac fibrosis (PE, compared to control sham animals), the cardiac fibrosis result is listed as “significant increase in cardiac fibrosis”. Further, the “expression of collagen type I” value in the assay with collagen type I (setting [5]) is recorded as “increased expression of type I collagen compared to control”. In the assay on cardiomyocytes (NRVMs), the “oxygen consumption rate (OCR)” value was “reduced oxygen consumption rate”.
